Assay results: patent US20240309360A1, “TRANS-ACTIVATORS AND METHODS AND USE THEREOF” (THE GOVERNING COUNCIL OF THE UNIVERSITY OF TORONTO, priority 2021, published 2024); call rule not given here

How the values were obtained:
Type in all cases: cell-based, human
[1] = system: transcriptional activity of 83 transcriptional regulators on the EGFP reporter; assay: Tethered reporter assays in the presence of inhibitors; conditions: for effect of inhibitor on activity of the activators: 100 nM flavopiridol, 300 nM JQ1, 1 μM A-485, 2.5 μM CX-4945, 3 μM AZ191, 100 μM ABA 48 hours
Protocol: To functionally investigate the connection between transcriptional activators and co-factors, a panel of 83 robust activators was arrayed. Their activation potential was tested using the reporter assay, but now in the presence of small-molecule inhibitors targeting multiple transcriptional co-regulators. Three kinase inhibitors targeting transcriptional kinases (flavopiridol for CDK9, CX-4945 for casein kinase 2, and AZ191 for DYRK1A and DYRK1B), and two compounds inhibiting transcriptional co-factors (A-485 for CBP/p300, and JQ1 for BET family bromodomain proteins) were employed.
(§1) Arrayed recruitment assays. Reporter cells stably co-expressing ABI-dCas9 and TetO gRNA were seeded either on 48-well or 96-well plates (Sarstedt) to reach 50-70% confluency on the day of transfection. 150 ng of each construct to be tested was transfected with polyethylenimine (PEI) at a ratio of 0.6 μl reagent. The day after transfection, recruitment was induced by treatment with ABA (100 μM). […] Inhibitors were dissolved in DMSO to a stock concentration of 10 mM. The final concentrations used were 100 nM for flavopiridol, 300 nM for JQ1, 1 μM for A-485, 2.5 μM for CX-4945 and 3 μM for AZ191. All inhibitors were a kind gift from the Structural Genomics Consortium (SGC). 48 hours after induction, cells were dissociated and resuspended in flow buffer using a liquid handing robot (TECAN) and analyzed by LSR Fortessa (BD). Cells were gated on high EBFP2 and RFP as a measure of gRNA and transfection control, respectively. Flow cytometry data was analyzed using FlowJo (v10).

[2] = system: EGFP reporter (7×TetO array, basal CMV promoter) in HEK293T reporter cell line; assay: TAD-seq pooled activation screen of 60-aa fragments fused to PYL1; conditions: for Hit high GFP: high GFP population (top 1%); for logFC high GFP / logFC medium GFP: log 2 fold change of counts, 100 μM ABA 48 hours; for logFC high GFP: sorted high GFP cells (top 1%) vs unsorted cells; for logFC medium GFP: sorted medium GFP cells (top 2-5%) vs unsorted cells; for Hit medium GFP: medium GFP population (top 2-5%)
Outline: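 60-aa tiles at 20-aa steps from 75 activator proteins, C-terminally fused to PYL1, lentivirally transduced at low MOI into reporter cells co-expressing ABI-dCas9 and promoter gRNA. Recruitment induced with 100 μM abscisic acid for 48 h (DMSO control). Top 1% and next 4% GFP cells sorted; fragments quantified by sequencing, two replicates.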

[3] = system: EGFP reporter (7×TetO array, basal CMV promoter) in HEK293T reporter cell line; assay: Arrayed recruitment assay, PYL1 fusions individually recruited to reporter via ABI1-dCas9 with ABA; design: key to independently validated as transactivating fragment: Fragments marked with * were independently validated; conditions: for independently validated as transactivating fragment: fragment fused to PYL1, arrayed format; for activation of the EGFP reporter when individually tested: PYL1 fusion, ABA 48 hours, flow cytometry
Source text: Treatment of cells with abscisic acid (ABA) induces an interaction between ABI1 and PYL1, thereby recruiting the potential transcriptional activator to a specific genomic locus defined by the guide RNA (gRNA). As a reporter, a HEK293T cell line that contains a stably integrated construct with a 7×TetO array and a basal CMV promoter driving the expression of EGFP was used (Gao et al., 2016). A monoclonal cell line that expresses ABI1-dCas9 and a single gRNA targeting TetO was generated by lentiviral infection.
as §1

Compound | Hit high GFP [2] | logFC high GFP [2] | logFC medium GFP [2] | Hit medium GFP [2] | independently validated as transactivating fragment [3] | other results
CN1CC[C@H](c2c(O)cc(O)c3c(=O)cc(-c4ccccc4Cl)oc23)[C@H](O)C1 [flavopiridol] |  |  |  |  |  | effect of inhibitor on activity of the activators [1]: nearly complete loss of activity of all activators
ATF6-2: 60-aa TAD-seq fragment of ATF6 (HRLDEDWDSALFAELGYFTDTDELQLEAANETYENNFDNLDFDLDLVPWESDIWDINNQI; listed as Homo sapiens) | hit | 4.688 | 1.477 | hit | ATF6-2* | 
C3orf62-12: 60-aa TAD-seq fragment of C3orf62 (QDSPFKEEAWALLMDKSPQKATDADPGSLKQAFDDHNIVETVLDLEEDYNVMTSFKYQIE; listed as Homo sapiens) [Fragment C3orf62-12] | hit | 6.493 | −0.6067 |  | 12* | 
p300: known transcriptional activator p300 fused to PYL1 [reference compound] |  |  |  |  |  | activation of the EGFP reporter when individually tested [3]: robust induction of GFP
Cc1sc2c(c1C)C(c1ccc(Cl)cc1)=N[C@@H](CC(=O)OC(C)(C)C)c1nnc(C)n1-2 [JQ1] |  |  |  |  |  | effect of inhibitor on activity of the activators [1]: increase in reporter gene activity; effect of inhibitor on activity of NuA4 complex interactors ([1]; 1 μM A-485 or 300 nM JQ1, e.g. JAZF1 and KLF6): not affected
HOXB2: HOX family transcription factor tested as PYL1 fusion |  |  |  |  |  | activation of the EGFP reporter when individually tested [3]: characterized as activators
CBX2: CBX-C domain of CBX2 (SASPPSTGQNPSVSVQTSQDWKPTRSLIEHVFVTDVTANLITVTVKESPTSVGFFNLRHY; listed as Homo sapiens) |  |  |  |  |  | activation of the EGFP reporter when individually tested [3]: the most potent activator
YAF2-7: 60-aa TAD-seq fragment of YAF2 (SHKKTRPRLKNVDRSSAQHLEVTVGDLTVIITDFKEKTKSPPASSAASADQHSQSGSSSD; listed as Homo sapiens) | hit | 4.987 | 1.828 | hit | YAF2-7* | 
VP64: synthetic transactivator, four tandem copies of the viral VP16 transactivation motif (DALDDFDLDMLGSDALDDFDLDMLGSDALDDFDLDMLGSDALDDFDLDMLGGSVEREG; listed as Homo sapiens) [reference compound] | hit | 5.476 | 2.374 |  |  | enrichment compared to the unsorted fragment library ([2]; high GFP and medium GFP populations): enriched in the high GFP population but depleted in the medium GFP population; activation of the EGFP reporter when individually tested [3]: robust induction of GFP
ZXDC-12: 60-aa TAD-seq fragment of ZXDC (SPAEQHGAQDTELSAGTGNFYLESGGSARTDYRAIQLAKEKKQRGAGSNAGASQSTQRKI; listed as Homo sapiens) | hit | 3.966 | 2.496 | hit | ZXDC-12* | 
FAM90A1-20: 60-aa TAD-seq fragment of FAM90A1 (HPAASHDGAQPLRVLFRRLENGRWSSSLLTAPSFHSPEKPGAFLAQSPHVSEKSEGPCVR; listed as Homo sapiens) | hit | 3.017 | 1.616 | hit | 20* | 
KLF7-1: 60-aa TAD-seq fragment of KLF7 (MDVLASYSIFQELQLVHDTGYFSALPSLEETWQQTCLELERYLQTEPRRISETFGEDLDC; listed as Homo sapiens) | hit | 5.998 | 1.29 | hit | KLF7-1* | 
BRD8-25: 60-aa TAD-seq fragment of BRD8 (GEELDFETVGDIIAIIEDKVDDHPEVLDVAAVEAALSFCEENDDPQSLPGPWEHPIQQER; listed as Homo sapiens) | hit | 1.567 | 1.834 | hit | BRD8-25* | 
CITED2-12: 60-aa TAD-seq fragment of CITED2 (AMLPPNVIDTDFIDEEVLMSLVIEMGLDRIKELPELWLGQNEFDFMTDFVCKQQPSRVSC; listed as Homo sapiens) | hit | 6.148 | −0.9005 |  | 12* | 
COc1cc(N2CCN(C)CC2)ccc1Nc1nccc(-c2cn(C)c3cnccc23)n1 [AZ191] |  |  |  |  |  | effect of inhibitor on activity of the activators [1]: slightly attenuating the activity of most activators; effect of inhibitor on activity of DCAF7 and NCKIPSD ([1]; 3 μM AZ191): not affected
YAF2: YAF2_RYBP domain of YAF2; same SEQ ID NO as YAF2-7 (SHKKTRPRLKNVDRSSAQHLEVTVGDLTVIITDFKEKTKSPPASSAASADQHSQSGSSSD; listed as Homo sapiens) |  |  |  |  |  | activation of the EGFP reporter when individually tested [3]: robustly activated the reporter
CITED1-8: 60-aa TAD-seq fragment of CITED1 (ESLSPSAGAQSPAIIDSDPVDEEVLMSLVVELGLDRANELPELWLGQNEFDFTADFPSSC; listed as Homo sapiens) | hit | 6.826 | −1.166 |  | 8* | 
CBX8: CBX-C domain of CBX8 (RPSLIARIPVARILGDPEEESWSPSLTNLEKVVVTDVTSNFLTVTIKESNTDQGFFKEKR; listed as Homo sapiens) |  |  |  |  |  | activation of the EGFP reporter when individually tested [3]: activated the reporter weakly
ATXN7L3-1: 60-aa TAD-seq fragment of ATXN7L3 (MKMEEMSLSGLDNSKLEAIAQEIYADLVEDSCLGFCFEVHRAVKCGYFFLDDTDPDSMKD; listed as Homo sapiens) | hit | 1.638 | 1.684 | hit | 1* | 
CSRNP1-28: 60-aa TAD-seq fragment of CSRNP1 (DNIEAPHFPLPGLSPPGDASSCFLESLMGFSEPAAEALDPFIDSQFEDTVPASLMEPVPV; listed as Homo sapiens) |  | 0.5029 | 0.6955 | hit |  | 
HOXA2-4: 60-aa TAD-seq fragment of HOXA2 (PGSHPRHGAGGRPKPSPAGSRGSPVPAGALQPPEYPWMKEKKAAKKTALLPAAAAAATAA; listed as Homo sapiens) |  | 1.664 | 1.595 | hit |  | 
